Reference: US20210231538A1, “DISSOCIATION OF BIOLOGICAL SAMPLES” (priority 2018, published 2021)
“Also recorded” adds a separate entry of the source. Counter-ions that a name gives are not always drawn. Like-named read-outs stand apart in the source and are kept apart here.

Experiments:
[1] = test system: Trimethylglycine:Trifluoroacetamide fixed mouse liver single-cells; test: Lysis of fixed cells by solvents and aqueous solutions; assay type: cell-based; conditions: for Cell lysis effect (4 day treatment): nuclei: whether nuclei are lysed
Excerpt: (§1) This is important for example if studying the RNA component of the cytoplasm, nuclei or the entire cell contents as a selection of the source of the RNA can be made based on the solvent used.

[2] = test system: DES fixed cell cytoplasm and nuclei; test: Solubilisation of cytoplasm versus nuclei of DES fixed cells; assay type: cell-based; conditions: DMSO at 25% or more final concentration
Excerpt: as §1
Such intact nuclei can be sorted, pelleted selected, and their contents analysed either in entire nuclei by using, for example, labeled antibodies specific to nuclear epitopes such as Ki-67 or, by using fluorescent nucleic acid probes for detecting RNA and DNA. Alternatively the purified nuclei can be lysed and their contents including proteins, DNA and RNA released for further analysis such as genomic DNA sequencing, protein-protein interactions, intron splicing, CHIP analysis, chromosome analysis and/or RNA sequencing.

[3] = 500 fixed, dissociated mouse liver cells per well, bromophenol blue stained, 4 day treatment
[4] = organic solvents in the range of 80-100% final concentration

Row | Compound | Cell lysis effect (4 day treatment) [1, 3] | further results
1 | 10 mg/ml BSA (acetylated): BSA (acetylated) | No lysis | –
2 | C[C@H](CCC(=O)NCCC[N+](C)(C)CCCS(=O)(=O)[O-])[C@H]1CC[C@H]2[C@@H]3[C@H](O)C[C@@H]4C[C@H](O)CC[C@]4(C)[C@H]3C[C@H](O)[C@]12C [1% CHAPS, CHAPS] | >80% cell lysis | –
3 | CC(O)(C(F)(F)F)C(F)(F)F [1,1,1,3,3,3-Hexafluoro-2-methyl-2-propanol] | – | lysing of Trimethylglycine:Trifluoroacetamide (1:2 mol:mol) fixed samples [1, 4]: particularly effective at effectuating cell lysis
4 | OC(c1ccccc1)(C(F)(F)F)C(F)(F)F [1,1,1,3,3,3-Hexafluoro-2-phenyl-2-propanol] | – | lysing of Trimethylglycine:Trifluoroacetamide (1:2 mol:mol) fixed samples [1, 4]: particularly effective at effectuating cell lysis
5 | [Cl-].[Li+] [1M LiCl, LiCl] | No lysis | –
6 | CCCCCCCCCCCCOS(=O)(=O)[O-].[Na+] [2% SDS, Sodium dodecyl sulphate] | – | Cell lysis effect (4 day treatment) ([1]; 500 fixed, dissociated mouse liver cells per well, bromophenol blue stained, 4 day treatment, listed as 0.1% SDS, sulphate): >15% cell lysis; Cell lysis effect (4 day treatment) ([1]; 500 fixed, dissociated mouse liver cells per well, bromophenol blue stained, 4 day treatment, sulphate): Complete Lysis
7 | N#CS.N=C(N)N [4M Guanidine thiocyanate, Guanidine thiocyanate] | – | Cell lysis effect (4 day treatment) [1]: >50% cell lysis
8 | N=C(N)N [5M Guanidine HCl, Guanidine HCl] | >50% cell lysis | –
9 | [I-].[K+] [5M Potassium iodide, Potassium iodide] | >50% cell lysis | Cell lysis effect (4 day treatment) ([1]; 500 fixed, dissociated mouse liver cells per well, bromophenol blue stained, 4 day treatment, listed as 1M Potassium iodide): No lysis; lysing of Trimethylglycine:Trifluoroacetamide (1:2 mol:mol) fixed samples [1, 4]: efficient at lysing
10 | [O-][Cl+3]([O-])([O-])O [5M Sodium perchlorate, Sodium perchlorate] | 100% cell lysis | lysing of Trimethylglycine:Trifluoroacetamide (1:2 mol:mol) fixed samples [1, 4]: efficient at lysing
11 | CCCC[N+](CCCC)(CCCC)CCCC.[Cl-] [5M Tetrabutyl ammonium chloride, Tetrabutyl ammonium chloride] | – | Cell lysis effect (4 day treatment) [1]: No lysis
12 | C[N+](C)(C)C.[Cl-] [5M Tetramethyl ammonium chloride, Tetramethyl ammonium chloride] | – | Cell lysis effect (4 day treatment) [1]: No lysis
13 | NC(N)=O [8M Urea, Urea] | > 95% | Cell lysis effect (4 day treatment): nuclei ([1]; 4 day treatment): not nuclei
14 | CN1CCCC1=O [50% N-methyl pyrrolidone, N-methyl pyrrolidone] | No lysis | –
15 | OC(C(F)(F)F)C(F)(F)F [100% 1,1,1,3,3,3-Hexafluoro-2-propanol, 1,1,1,3,3,3-Hexafluoro-2-propanol] | Complete lysis | Cell lysis effect (4 day treatment) ([1]; 500 fixed, dissociated mouse liver cells per well, bromophenol blue stained, 4 day treatment, listed as 10% 1,1,1,3,3,3-Hexafluoro-2-propanol): No lysis; Cell lysis effect (4 day treatment) ([1]; 500 fixed, dissociated mouse liver cells per well, bromophenol blue stained, 4 day treatment, listed as 50% 1,1,1,3,3,3-Hexafluoro-2-propanol): >40% cell lysis; Cell lysis effect (4 day treatment) ([1]; 500 fixed, dissociated mouse liver cells per well, bromophenol blue stained, 4 day treatment, listed as 90% 1,1,1,3,3,3-Hexafluoro-2-propanol): Complete lysis; lysing of Trimethylglycine:Trifluoroacetamide (1:2 mol:mol) fixed samples [1, 4]: particularly effective at effectuating cell lysis; Cell lysis effect (4 day treatment): nuclei ([1]; 4 day treatment): including nuclei; solubilisation of fixed cell cytoplasm and nuclei [2]: very efficiently solubilises both the cytoplasm and nuclei
16 | CCn1ccnc1 [100% 1-Ethylimidazole, 1-Ethylimidazole] | No lysis | –
17 | Cn1ccnc1 [100% 1-Methylimidazole, 1-Methylimidazole] | No lysis | –
18 | CC(C)=O [100% Acetone, Acetone] | No lysis | –
19 | OCCS [100% Beta-mercaptoethanol, Beta-mercaptoethanol] | 100% cell lysis | Cell lysis effect (4 day treatment) ([1]; 500 fixed, dissociated mouse liver cells per well, bromophenol blue stained, 4 day treatment, listed as 10% Beta-mercaptoethanol): No lysis; Cell lysis effect (4 day treatment) ([1]; 500 fixed, dissociated mouse liver cells per well, bromophenol blue stained, 4 day treatment, listed as 20% Beta-mercaptoethanol): No lysis; Cell lysis effect (4 day treatment) ([1]; 500 fixed, dissociated mouse liver cells per well, bromophenol blue stained, 4 day treatment, listed as 40% Beta-mercaptoethanol): No lysis; Cell lysis effect (4 day treatment) ([1]; 500 fixed, dissociated mouse liver cells per well, bromophenol blue stained, 4 day treatment, listed as 60% Beta-mercaptoethanol): >50% cell lysis; Cell lysis effect (4 day treatment) ([1]; 500 fixed, dissociated mouse liver cells per well, bromophenol blue stained, 4 day treatment, listed as 80% Beta-mercaptoethanol): >80% cell lysis; lysing of Trimethylglycine:Trifluoroacetamide (1:2 mol:mol) fixed samples [1, 4]: particularly effective at effectuating cell lysis

Row | Compound | Cell lysis effect (4 day treatment) [1, 3] | further results
20 | C[S+](C)[O-] [100% DMSO, Dimethylsulphoxide] | >70% cell lysis | lysing of Trimethylglycine:Trifluoroacetamide (1:2 mol:mol) fixed samples [1, 4]: particularly effective at effectuating cell lysis; solubilisation of fixed cell cytoplasm and nuclei [2]: very efficiently solubilises the Trimethylglycine:Trifluoroacetamide fixed cell's cytoplasm but not the nuclei; also recorded: particularly efficient at the solubilization and removal of the cell membrane and cytoplasm but not the nucleus
21 | CCO [100% Ethanol, Ethanol] | No lysis | –
22 | NC=O [100% Formamide, Formamide] | No lysis | –
23 | O=CN1CCOCC1 [100% Formyl morpholine, Formyl morpholine] | No lysis | –
24 | OCC(O)CO [100% Glycerol, Glycerol] | No lysis | –
25 | CCN1CCCC1=O [100% N-ethyl pyrrolidone, N-ethyl pyrrolidone] | No lysis | –
26 | CCN(CC)C(=O)C(F)(F)F [N,N-Diethyl-2,2,2-Trifluoroacetamide] | No lysis | –
27 | CN(C)C(=O)C(F)(F)F [N,N-Methyl-2,2,2-Trifluoroacetamide] | No lysis | –
28 | NC(=O)C(F)(F)C(F)F [Saturated Tetrafluoropropionamide, Tetrafluoropropionamide] | No lysis | –
29 | NC(N)=S [Saturated Thiourea, Thiourea] | 100% cell lysis | –
30 | NC(=O)C(F)(F)F [Saturated Trifluoroacteamide, Trifluoroacteamide] | No lysis | –
31 | Oc1ccccc1 [phenol] | – | lysing of Trimethylglycine:Trifluoroacetamide (1:2 mol:mol) fixed samples [1]: particularly effective at effectuating cell lysis
32 | IGEPAL-CA630 [50% IGEPAL-CA630] | 100% cell lysis | Cell lysis effect (4 day treatment) ([1]; 500 fixed, dissociated mouse liver cells per well, bromophenol blue stained, 4 day treatment, listed as 10% IGEPAL-CA630): No lysis; Cell lysis effect (4 day treatment) ([1]; 500 fixed, dissociated mouse liver cells per well, bromophenol blue stained, 4 day treatment, listed as 30% IGEPAL-CA630): No lysis
33 | NP40 [1% NP40] | >50% cell lysis | –
34 | PEG200 [100% PEG200] | No lysis | –
35 | Tetramethyl ammonium oxide [50% Tetramethyl ammonium oxide] | 100% cell lysis | –
36 | Triton X100 [1% Triton X100] | >60% cell lysis | –
37 | Tween-20 [1% Tween-20] | >60% cell lysis | –
